PMC10167355, “Optimized spirooxindole-pyrazole hybrids targeting the p53-MDM2 interplay induce apoptosis and synergize with doxorubicin in A549 cells” (Scientific Reports, 2023)
Each block holds one compound with its values, some of them ahead of it.

Legend:
p21 = experiment: Western blot of p21 level in A549 cells; assay type: cell-based, human; conditions: A549; for p21 level, single agent: 0.2 µM derivative alone or 14 µM doxorubicin alone
Experimental: (§1) A549 cells were treated with different concentrations of the molecules as indicated. Cell extracts were prepared as described. Ten-20 μg of total proteins were resolved on 4–15% Mini protean TGX precast gels (Bio-Rad) and transferred to nitrocellulose membrane using 1704158 Trans-Blot Turbo Mini NC Transfer Packs (Bio-Rad) in a Trans-Blot Turbo apparatus (Bio-Rad). Membranes were blocked with 5% non-fat dry milk in 0.1% Tween-20 in PBS for 1 h, then incubated for 1 h at room temperature or overnight at 4 °C with the appropriate primary antibody. The following antibodies were employed: anti-p53 (DO-1, sc-126, Santa Cruz Biotechnology, 1:20.000), anti-p21 (2946, Cell Signaling, 1:2000), anti-MDM2 (SMP14, sc-965, Santa Cruz Biotechnology, 1:200), anti β-actin (AC-74, Sigma-Aldrich, 1:30.000); secondary anti-mouse IgG peroxidase conjugate (A9044, Sigma–Aldrich, 1:10.000) and secondary anti-rabbit peroxidase conjugate (A9169, Sigma-Aldrich, 1: 12.000). Detection was carried out with ECL FAST PICO (ECL-1002, Immunological Sciences, Roma, Italy). Chemiluminescence was analysed by Alliance LD, UVITEC Cambridge (Cambridge, UK).

p53 = experiment: Western blot of p53 level in A549 cells; assay type: cell-based, human; conditions: for p53 level, single agent: 0.2 µM derivative alone or 14 µM doxorubicin alone
Experimental: as §1

MDM2 = experiment: Western blot of MDM2 level in A549 cells; assay type: cell-based, human; conditions: A549; for MDM2 level, single agent: 0.2 µM derivative alone or 14 µM doxorubicin alone
Experimental: as §1

[1] = 0.2 µM derivative plus 14 µM doxorubicin

Compound: Cc1c(C(=O)C2C(c3ccccc3)C3CSCN3C23C(=O)Nc2ccccc23)cnn1-c1ccccc1 (stereo not drawn)
melting point: 229 to 230 °C

Compound: Cc1c(C(=O)C2C(c3ccc(Cl)cc3)C3CSCN3C23C(=O)Nc2ccccc23)cnn1-c1ccccc1 (stereo not drawn)
melting point: 122 to 123 °C

Compound: Cc1c(C(=O)C2C(c3ccc([N+](=O)[O-])cc3)C3CSCN3C23C(=O)Nc2ccccc23)cnn1-c1ccccc1 (stereo not drawn)
melting point: 142 to 143 °C

Compound: Cc1ccc(C2C3CSCN3C3(C(=O)Nc4ccccc43)C2C(=O)c2cnn(-c3ccccc3)c2C)cc1 (stereo not drawn)
melting point: 134 to 135 °C

Compound: 7'-(Ferrocin-2-yl)-6'-(5-methyl-1-phenyl-1H-pyrazole-4-carbonyl)-3',6',7',7a'-tetrahydro-1'H-spiro[indoline-3,5'-pyrrolo[1,2-c]thiazol]-2-one [8d]
p21 level, single agent (p21): did not increase | p21 level, combined treatment compared to doxorubicin alone (p21; [1]): no further increases | p53 induction, dose–response (p53; A549, 24 h, 0.01, 0.1, 1, 10 µM): able to induce p53 only at high concentrations | p53 level, single agent (p53; A549): did not increase | p53 level, combined treatment compared to doxorubicin alone (p53; A549, 0.2 µM derivative plus 14 µM doxorubicin): no further increases | MDM2 level, single agent (MDM2): slight but not significant MDM2 increase | MDM2 level, combined treatment compared to doxorubicin alone (MDM2; [1]): no further increases

Compound: COc1cccc2c1C(=O)c1c(O)c3c(c(O)c1C2=O)C[C@@](O)(C(=O)CO)C[C@@H]3O[C@H]1C[C@H](N)[C@H](O)[C@H](C)O1 [Doxorubicin, doxorubicin]
p21 level, single agent (p21): clearly triggered the induction | p53 level, single agent (p53; A549): clearly triggered the induction | MDM2 level, single agent (MDM2): strongly decreased

The next lines start with the values.

melting point: 128 to 130 °C
Compound: Cc1cccc(C2C3CSCN3C3(C(=O)Nc4ccccc43)C2C(=O)c2cnn(-c3ccccc3)c2C)c1 (stereo not drawn)

melting point: 109 to 110 °C
Compound: COc1ccc(C2C3CSCN3C3(C(=O)Nc4ccccc43)C2C(=O)c2cnn(-c3ccccc3)c2C)cc1 (stereo not drawn)

melting point: 144 to 145 °C
Compound: Cc1c(C(=O)C2C(/C=C/c3ccccc3)C3CSCN3C23C(=O)Nc2ccccc23)cnn1-c1ccccc1 (stereo not drawn)

melting point: 146 to 147 °C
Compound: Cc1c(C(=O)C2C(c3cccc([N+](=O)[O-])c3)C3CSCN3C23C(=O)Nc2ccccc23)cnn1-c1ccccc1 (stereo not drawn)
